Test results taken from patent US20070207195A1, “Genetic Screening for Polymorphisms in Human Genes that Increase or Decrease Sensitivity to Toxic Agents” (Applied Genetics Incorporated Dermatics, priority 2004, published 2007).

Test system: NCI screening panel tumor cell lines
Experiment: Growth inhibition (GI50, sulforhodamine B) in NCI tumor cell line panel, correlated with polymorphic genotype
Type: cell-based, human
[1] = NOS3 t-786c, ratio of average GI(50) of genotypes, 48 h drug incubation

Description: The method tests a toxic agent over five 10-fold dilutions in cells for 48 hrs in a 5% CO2 atmosphere and 100% humidity. For most agents the highest concentration was 0.1 mM, but for the standard agents the highest well concentration depended on experience with the agent. DNA purified from each cell line was analyzed for SNPs at the alleles of interest. […] Cell suspensions were added to a microtiter plate and incubated for 24 h at 37° C. The drugs were added at concentrations spanning five 10-fold dilutions, and incubated for 48 h. The cells were assayed by staining the cells with sulforhodamine B, and a plate reader was used to read the optical densities. The results are expressed as a GI50 value, which is the drug concentration producing 50% growth inhibition, with correction for the cell count at time zero. […] The drug sensitivities for the polymorphs of each gene of interest were calculated in the following manner. For each drug, the average GI(50) for each polymorphic genotype was calculated, e.g., the GI(50) for the homozygous dominant, heterozygous and homozygous variant genotypes. Then the GI(50)s for all the drugs were analyzed among genotypes by nonparametric Friedman Repeated Measures ANOVA. In this test the GI(50) is only used for ranking among the genotypes for each drug, so errors due to sample size among genotypes are minimized. Statistical analysis of each pair of polymorphic genotypes was done by the Tukey-Kramer Multiple Comparison Test. Analysis of relative sensitivity of the genotypes to an individual drug was by parametric ANOVA. To determine the relative sensitivity of each pair of genotypes, the relative sensitivity to each drug was calculated by dividing the GI(50) of one genotype by the GI(50) of the other. The relative sensitivities for all the drugs were then averaged. For each pair of genotypes, we also calculated the percent of drugs in which one genotype was more sensitive than the other. […]

Row | Structure (SMILES) | resistance of XRCC1 R399Q homozygous variant genotype versus homozygous dominant genotype (XRCC1 R399Q, single-drug analysis, p=0.045 Bonferroni adjusted multiple comparison test) | survival of NOS3 t-786c homozygous variant genotype relative to heterozygous genotype [1] [%] | survival of NOS3 t-786c homozygous variant genotype relative to homozygous dominant genotype [1] [%]
1 | CC[C@]1(O)C[C@@H]2CN(CCc3c([nH]c4ccccc34)[C@@](C(=O)OC)(c3cc4c(cc3OC)N(C)[C@H]3[C@@](O)(C(=O)OC)[C@H](OC(C)=O)[C@]5(CC)C=CCN6CC[C@]43[C@@H]65)C2)C1 [vinblastine] | significantly more resistant |  | 
2 | Nc1nc2nc[nH]c2c(=S)[nH]1 [thioguanine, Thioguanine] |  | 35 | 68
